Experiments:
Assay type in all cases: in vivo, commercial broiler chicks
Conditions in all cases: gut of DOH chicks, n = 12, ± Std Err
thermotolerant spores = test: Gut counts of day of hatch chicks: thermotolerant spores on TSA
Experimental: Guts from chicks treated with either the bacterial formulation of example 3 or formaldehyde were tested for thermotolerant spores, presumptive Lactic Acid Bacteria (LAB) and Gram-negative bacteria.
Directly prior to chick removal from the hatchers twelve birds per treatment group were removed from the hatcher. Birds were transported (˜1 h) to an appropriate research facility and humanely euthanized by CO2 asphyxiation. Gut packs containing duodenum, ileum, and ceca were aseptically removed and separately homogenized. Gut samples were diluted in sterile saline at a 1:4 wt/vol rate. Ten-fold dilutions were made by placing 200 μl of the sample (N) into the first row of a sterile 96-well plate and sequentially diluting by transferring 20 μl to 180 μl sterile saline to the 10^−7 dilution. The dilutions (N to 10^−7) were plated by 10 μl drop onto both MRS agar and MacConkey's agar. For Trypticase soy agar (TSA) plating, the gut samples were Pasteurized at 80° C. for 10 min before transferring 200 μl into a 96 well plate. The rest of the dilutions and plating methods were the same as the MRS and MacConkey's agar. Agar plates were counted after 24 h of incubation at 37° C.

[1] = tested on: presumptive Lactic Acid Bacteria (LAB); test: Gut counts of day of hatch chicks: presumptive LAB on MRS agar
Gram-negative bacteria = test: Gut counts of day of hatch chicks: Gram-negative bacteria on MacConkey's agar

## C=O [Formaldehyde]
Thermotolerant spores; Exp 1, samples not pasteurized
  thermotolerant spore counts, TSA, Exp 1: 8.95 ± 0.2 Log10 CFU/g
Thermotolerant spores; Exp 2, pasteurized
  thermotolerant spore counts, TSA, Exp 2: 1.34 ± 0.48 Log10 CFU/g
Thermotolerant spores; Exp 3, pasteurized
  thermotolerant spore counts, TSA, Exp 3: 0.69 ± 0.36 Log10 CFU/g
Thermotolerant spores; Exp 4, pasteurized
  thermotolerant spore counts, TSA, Exp 4: 0.44 ± 0.3 Log10 CFU/g
Thermotolerant spores; Exp 5, pasteurized
  thermotolerant spore counts, TSA, Exp 5: 0 ± 0 Log10 CFU/g
[1]; Exp 1
  presumptive Lactic Acid bacteria counts, MRS agar, Exp 1: 7.79 ± 0.17 Log10 CFU/g
[1]; Exp 2
  presumptive Lactic Acid bacteria counts, MRS agar, Exp 2: 7.26 ± 0.34 Log10 CFU/g
[1]; Exp 3
  presumptive Lactic Acid bacteria counts, MRS agar, Exp 3: 6.26 ± 0.83 Log10 CFU/g
[1]; Exp 4
  presumptive Lactic Acid bacteria counts, MRS agar, Exp 4: 5.1 ± 0.99 Log10 CFU/g
[1]; Exp 5
  presumptive Lactic Acid bacteria counts, MRS agar, Exp 5: 2.85 ± 0.96 Log10 CFU/g
Gram-negative bacteria; Exp 1
  presumptive Gram-negative bacteria counts, MacConkey's agar, Exp 1: 8.39 ± 0.19 Log10 CFU/g
Gram-negative bacteria; Exp 2
  presumptive Gram-negative bacteria counts, MacConkey's agar, Exp 2: 6.56 ± 0.83 Log10 CFU/g
Gram-negative bacteria; Exp 3
  presumptive Gram-negative bacteria counts, MacConkey's agar, Exp 3: 3.9 ± 0.93 Log10 CFU/g
Gram-negative bacteria; Exp 4
  presumptive Gram-negative bacteria counts, MacConkey's agar, Exp 4: 4.95 ± 0.99 Log10 CFU/g
Gram-negative bacteria; Exp 5
  presumptive Gram-negative bacteria counts, MacConkey's agar, Exp 5: 2.84 ± 0.92 Log10 CFU/g
